Measured values: publication PMC8467763, “The Central PXXP Motif Is Crucial for PMAP-23 Translocation across the Lipid Bilayer” (International Journal of Molecular Sciences, 2021)
Ends that are not written are not given here.

Experiments:
Escherichia coli = format: cell-based
Description: (§1) The antimicrobial activity of the peptides was tested against gram-positive Staphylococcus aureus and gram-negative Escherichia coli by a broth microdilution method, as described previously. Briefly, a colony of bacteria was incubated in culture medium (10 mL) and incubated at 37 °C for 14–18 h. After an aliquot (50 μL) of this culture was transferred to fresh culture medium (10 mL), each bacterial strain was grown to reach the mid-logarithmic phase. A total of 100 μL of bacteria (2 × 10^6 CFU/mL) were added to 96-well microtiter plates in the presence of serial dilutions of peptides. […] Measurements were repeated at least three times in triplicate.

Staphylococcus aureus = format: cell-based
Description: as §1

| Sequence | MIC E. coli (Escherichia coli) [µM] | MIC S. aureus (Staphylococcus aureus) [µM] |
| --- | --- | --- |
| RIIDLLWRVRRAQKAKFVTVWVR [PMAP-PA] | 8 to 16 | 8 to 16 |
| RIIDLLWRVRRGQKGKFVTVWVR [PMAP-PG] | 8 to 16 |  |
| RIIDLLWRVRRPQKPKFVTVWVR [PMAP-23] | 2 to 4 | 2 to 4 |
